Assay results: the OPERA property sets (Mansouri et al. 2018)

Compound	logP
Cn1c(=O)[nH]c2nc[nH]c2c1=O	-0.27
Cn1c(=O)[nH]c2[nH]c(=O)[nH]c(=O)c21	-1.18
CN(C=O)c1c(N)n(C)c(=O)n(C)c1=O	-1.32
Cn1c(=O)[nH]c(=O)c2[nH]cnc21	-0.5
Cn1c(=O)[nH]c2[nH]c(=O)n(C)c2c1=O	-0.22
Cn1cnc2[nH]c(=O)[nH]c(=O)c21	-0.89
CN(C=O)c1c(N)n(C)c(=O)[nH]c1=O	-1.3
Cn1c(=O)c2c([nH]c(=O)n2C)n(C)c1=O	-0.37
Cn1c(=O)[nH]c2[nH]c(=O)[nH]c2c1=O	-0.57
Cn1c(=O)c2[nH]c(=O)[nH]c2n(C)c1=O	-0.52
Cn1c(=O)[nH]c(=O)c2c1[nH]c(=O)n2C	-1.33
Cn1c(=O)[nH]c(=O)c2[nH]c(=O)[nH]c21	-1.08
Cn1c(N)c(NC=O)c(=O)n(C)c1=O	-0.64
CN(C=O)c1c(N)[nH]c(=O)n(C)c1=O	-2.03
